Assay results: patent publication US10428044B2, “3-amino-1,5,6,7-tetrahydro-4H-indol-4-ones” (Bayer Pharma Aktiengesellschaft, priority 2014, dated 2019)

The compounds below were run against (recombinant) catalytic domain of human Bub1 (amino acids 704-1085) (Homo sapiens (Human), UniProt O43683) (assay: Bub1 kinase assay (TR-FRET)). Conditions: ATP 10 μM final, peptide substrate 1 μM final, 60 min at 22° C., read-out: Biological Assay: Bub1 kinase assay median IC50.
Assay type: biochemical
Protocol: Examples were tested in selected biological assays one or more times. When tested more than once, data are reported as either average values or as median values, wherein • the average value, also referred to as the arithmetic mean value, represents the sum of the values obtained divided by the number of times tested, and • the median value represents the middle number of the group of values when ranked in ascending or descending order. If the number of values in the data set is odd, the median is the middle value. If the number of values in the data set is even, the median is the arithmetic mean of the two middle values.
To this end, 100-fold concentrated compound solutions (in DMSO) were previously prepared by serial dilution (1:3.4) of 2 mM stocks in a clear low volume 384-well source microtiter plate (Greiner Bio-One, Frickenhausen, Germany), from which 50 nl of compounds were transferred into a black low volume test microtiter plate from the same supplier. […] The resulting mixture (5 μL final volume) was incubated at 22° C. during 60 min., and the reaction was stopped by the addition of 5 μL of an aqueous EDTA-solution (50 mM EDTA, in 100 mM HEPES pH 7.5 and 0.2% (w/v) bovine serum albumin) which also contained the TR-FRET detection reagents (0.2 μM streptavidin-XL665 [Cisbio Bioassays, Codolet, France] and 1 nM anti-phosho-Serine antibody [Merck Millipore, cat. #35-002] and 0.4 nM LANCE EU-W1024 labeled anti-mouse IgG antibody [Perkin-Elmer, product no. AD0077, alternatively a Terbium-cryptate-labeled anti-mouse IgG antibody from Cisbio Bioassays can be used]). The stopped reaction mixture was further incubated 1 h at 22° C. in order to allow the formation of complexes between peptides and detection reagents. Subsequently, the amount of product was evaluated by measurement of the resonance energy transfer from the Eu-chelate-antibody complex recognizing the Phosphoserine residue to the streptavidin-XL665 bound to the biotin moiety of the peptide. […] The data were normalised using two sets of control wells for high- (=enzyme reaction without inhibitor=0%=Minimum inhibition) and low- (=all assay components without enzyme=100%=Maximum inhibition) Bub1 activity. IC50 values were calculated by fitting the normalized inhibition data to a 4-parameter logistic equation (Minimum, Maximum, IC50, Hill; Y=Max+(Min−Max)/(1+(X/IC50)Hill)).

Sequence of (recombinant) catalytic domain of human Bub1 (amino acids 704-1085) (O43683 704-1085): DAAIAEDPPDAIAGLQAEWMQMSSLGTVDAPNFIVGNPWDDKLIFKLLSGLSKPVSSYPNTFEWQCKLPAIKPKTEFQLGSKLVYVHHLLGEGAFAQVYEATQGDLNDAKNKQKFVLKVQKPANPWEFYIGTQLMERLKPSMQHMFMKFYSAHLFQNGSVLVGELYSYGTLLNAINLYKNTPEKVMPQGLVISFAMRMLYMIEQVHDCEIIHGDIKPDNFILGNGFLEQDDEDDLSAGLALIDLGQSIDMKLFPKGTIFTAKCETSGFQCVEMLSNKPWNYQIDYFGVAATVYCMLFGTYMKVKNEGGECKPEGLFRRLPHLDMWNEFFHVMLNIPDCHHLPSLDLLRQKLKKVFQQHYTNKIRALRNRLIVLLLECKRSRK

IC50 | Structure (SMILES)
13 nM | CC(C)COCC(=O)Nc1cc(-c2[nH]c3c(c2Nc2ccccc2)C(=O)CCC3)ccn1 [Example 331, 2-(2-methylpropoxy)-N-{4-[4-oxo-3-(phenylamino)-4,5,6,7-tetrahydro-1H-indol-2-yl]pyridin-2-yl}acetamide]
1820 nM | CC1(C)CC(=O)c2c([nH]c(-c3ccncc3)c2Nc2cncc3ccccc23)C1 [Example 64, 3-(isoquinolin-4-ylamino)-6,6-dimethyl-2-(pyridin-4-yl)-1,5,6,7-tetrahydro-4H-indol-4-one]
3120 nM | Cc1cc(-c2[nH]c3c(c2Nc2ccccc2)C(=O)CC(C)(C)C3)cc(C)n1 [Example 209, 2-(2,6-dimethylpyridin-4-yl)-6,6-dimethyl-3-(phenylamino)-1,5,6,7-tetrahydro-4H-indol-4-one]
959 nM | CC1(C)CC(=O)c2c([nH]c(-c3ccnc(NCCCCc4ccccc4)c3)c2Nc2ccccc2)C1 [Example 507, 6,6-dimethyl-3-(phenylamino)-2-{2-[(4-phenylbutyl)amino]pyridin-4-yl}-1,5,6,7-tetrahydro-4H-indol-4-one]
14.8 nM | CC(=O)Nc1cc(-c2[nH]c3c(c2Nc2ccccc2)C(=O)CCC3)ccn1 [Example 39, N-{4-[4-oxo-3-(phenylamino)-4,5,6,7-tetrahydro-1H-indol-2-yl]pyridin-2-yl}acetamide]
1440 nM | CC1(C)CC(=O)c2c([nH]c(-c3ccnc(NCCCc4ccccc4)c3)c2Nc2ccccc2)C1 [Example 497, 6,6-dimethyl-3-(phenylamino)-2-{2-[(3-phenylpropyl)amino]pyridin-4-yl}-1,5,6,7-tetrahydro-4H-indol-4-one]
96.7 nM | O=C1CCCc2[nH]c(-c3ccnc(NCc4cscn4)c3)c(Nc3ccccc3)c21 [Example 501, 3-(phenylamino)-2-{2-[(1,3-thiazol-4-ylmethyl)amino]pyridin-4-yl}-1,5,6,7-tetrahydro-4H-indol-4-one]
19.8 nM | COCC(=O)Nc1cc(-c2[nH]c3c(c2Nc2ccccc2)C(=O)CCC3)ccn1 [Example 325, 2-methoxy-N-{4-[4-oxo-3-(phenylamino)-4,5,6,7-tetrahydro-1H-indol-2-yl]pyridin-2-yl}acetamide]
1890 nM | COc1cc(-c2[nH]c3c(c2Nc2ccccc2)C(=O)CCC3)ccn1 [Example 150, 2-(2-methoxypyridin-4-yl)-3-(phenylamino)-1,5,6,7-tetrahydro-4H-indol-4-one]
162 nM | Cn1c2c(c(Nc3ccccc3)c1-c1ccncc1)C(=O)CC(C)(C)C2 [Example 179, 1,6,6-trimethyl-3-(phenylamino)-2-(pyridin-4-yl)-1,5,6,7-tetrahydro-4H-indol-4-one]
12.7 nM | O=C(Nc1cc(-c2[nH]c3c(c2Nc2ccccc2)C(=O)CCC3)ccn1)c1ccn[nH]1 [Example 275, N-{4-[4-oxo-3-(phenylamino)-4,5,6,7-tetrahydro-1H-indol-2-yl]pyridin-2-yl}-1H-pyrazole-5-carboxamide]
84 nM | O=C(NCC(F)(F)F)Nc1cc(-c2[nH]c3c(c2Nc2ccccc2)C(=O)CCC3)ccn1 [Example 382, 1-{4-[4-oxo-3-(phenylamino)-4,5,6,7-tetrahydro-1H-indol-2-yl]pyridin-2-yl}-3-(2,2,2-trifluoroethyl)urea]
2340 nM | CC1(C)CC(=O)c2c([nH]c(-c3ccncc3)c2Nc2cccc(C3OCCO3)c2)C1 [Example 119, 3-{[3-(1,3-dioxolan-2-yl)phenyl]amino}-6,6-dimethyl-2-(pyridin-4-yl)-1,5,6,7-tetrahydro-4H-indol-4-one]
11.2 nM | CC(=O)Nc1cc(-c2[nH]c3c(c2Nc2ccccc2)C(=O)CC2(CC2)C3)ccn1 [Example 293, N-{4-[4′-oxo-3′-(phenylamino)-1′,4′,5′,7′-tetrahydrospiro[cyclopropane-1,6′-indol]-2′-yl]pyridin-2-yl}acetamide]
10.3 nM | CC1(C)CC(=O)c2c([nH]c(-c3ccnc(NC(=O)c4ccc(F)c(F)c4)c3)c2Nc2ccccc2)C1 [Example 473, N-{4-[6,6-dimethyl-4-oxo-3-(phenylamino)-4,5,6,7-tetrahydro-1H-indol-2-yl]pyridin-2-yl}-3,4-difluorobenzamide]
16.5 nM | CC1(C)CC(=O)c2c([nH]c(-c3ccncc3)c2Nc2ccc(F)cc2)C1 [Example 11, 3-[(4-fluorophenyl)amino]-6,6-dimethyl-2-(pyridin-4-yl)-1,5,6,7-tetrahydro-4H-indol-4-one]
954 nM | CCCC(=O)Nc1cccc(Nc2c(-c3ccncc3)[nH]c3c2C(=O)CC(C)(C)C3)c1 [Example 102, N-(3-{[6,6-dimethyl-4-oxo-2-(pyridin-4-yl)-4,5,6,7-tetrahydro-1H-indol-3-yl]amino}phenyl)butanamide]
42 nM | CC1(C)C/C(=N\O)c2c([nH]c(-c3ccncc3)c2Nc2ccccc2)C1 [Example 194, 4-(hydroxyimino)-6,6-dimethyl-N-phenyl-2-(pyridin-4-yl)-4,5,6,7-tetrahydro-1H-indol-3-amine]
36.3 nM | CC(C)C1CC(=O)c2c([nH]c(-c3ccnc(N)c3)c2Nc2cccc(F)c2)C1 (stereo not shown) [Example 50, 2-(2-aminopyridin-4-yl)-3-[(3-fluorophenyl)amino]-6-(propan-2-yl)-1,5,6,7-tetrahydro-4H-indol-4-one]
76.4 nM | CC1(C)CC(=O)c2c([nH]c(-c3ccncc3)c2Nc2ccc3sccc3c2)C1 [Example 69, 3-(1-benzothiophen-5-ylamino)-6,6-dimethyl-2-(pyridin-4-yl)-1,5,6,7-tetrahydro-4H-indol-4-one]
7.89 nM | O=C(COCc1ccc(F)cc1)Nc1cc(-c2[nH]c3c(c2Nc2ccccc2)C(=O)CCC3)ccn1 [Example 341, 2-[(4-fluorobenzyl)oxy]-N-{4-[4-oxo-3-(phenylamino)-4,5,6,7-tetrahydro-1H-indol-2-yl]pyridin-2-yl}acetamide]
44.3 nM | Cc1cc(Nc2c(-c3ccncc3)[nH]c3c2C(=O)CC(C)(C)C3)ccc1F [Example 81, 3-[(4-fluoro-3-methylphenyl)amino]-6,6-dimethyl-2-(pyridin-4-yl)-1,5,6,7-tetrahydro-4H-indol-4-one]
475 nM | CC1(C)CC(=O)c2c([nH]c(-c3cc[n+](CC(F)(F)F)cc3)c2Nc2ccccc2)C1 [Example 190, 4-[6,6-dimethyl-4-oxo-3-(phenylamino)-4,5,6,7-tetrahydro-1H-indol-2-yl]-1-(2,2,2-trifluoroethyl)pyridinium trifluoromethanesulfonate]
36.5 nM | O=C1CCCc2[nH]c(-c3ccncc3Br)c(Nc3ccccc3)c21 [Example 196, 2-(3-bromopyridin-4-yl)-3-(phenylamino)-1,5,6,7-tetrahydro-4H-indol-4-one]
9.36 nM | CCOCC(=O)Nc1cc(-c2[nH]c3c(c2Nc2ccccc2)C(=O)CCC3)ccn1 [Example 334, 2-ethoxy-N-{4-[4-oxo-3-(phenylamino)-4,5,6,7-tetrahydro-1H-indol-2-yl]pyridin-2-yl}acetamide]
11.8 nM | CC1(C)CC(=O)c2c([nH]c(-c3ccncc3)c2Nc2cccc(-c3ccco3)c2)C1 [Example 419, 3-{[3-(furan-2-yl)phenyl]amino}-6,6-dimethyl-2-(pyridin-4-yl)-1,5,6,7-tetrahydro-4H-indol-4-one]
13.9 nM | O=C(Cc1cccs1)Nc1cc(-c2[nH]c3c(c2Nc2ccccc2)C(=O)CCC3)ccn1 [Example 290, N-{4-[4-oxo-3-(phenylamino)-4,5,6,7-tetrahydro-1H-indol-2-yl]pyridin-2-yl}-2-(thiophen-2-yl)acetamide]
258 nM | CC1(C)CC(=O)c2c([nH]c(-c3ccncc3)c2Nc2ccc(F)c(C#N)c2)C1 [Example 147, 5-{[6,6-dimethyl-4-oxo-2-(pyridin-4-yl)-4,5,6,7-tetrahydro-1H-indol-3-yl]amino}-2-fluorobenzonitrile]
5670 nM | CCn1c2c(c(Nc3ccccc3)c1-c1ccncc1Cl)C(=O)CCC2 [Example 177, 2-(3-chloropyridin-4-yl)-1-ethyl-3-(phenylamino)-1,5,6,7-tetrahydro-4H-indol-4-one]
8.04 nM | CC1(C)CC(=O)c2c([nH]c(-c3ccnc(NC(=O)COCc4ccccc4)c3)c2Nc2ccccc2)C1 [Example 476, 2-(benzyloxy)-N-{4-[6,6-dimethyl-4-oxo-3-(phenylamino)-4,5,6,7-tetrahydro-1H-indol-2-yl]pyridin-2-yl}acetamide]

Structure (SMILES) | IC50
CCCCOCC(=O)Nc1cc(-c2[nH]c3c(c2Nc2ccccc2)C(=O)CCC3)ccn1 [Example 333, 2-butoxy-N-{4-[4-oxo-3-(phenylamino)-4,5,6,7-tetrahydro-1H-indol-2-yl]pyridin-2-yl}acetamide] | 7.33 nM
